In PubChem BioAssay AID1963970 (Molecular Pharmacology Branch, DTP, NCI, 2024):

Tested on: 931267-113-T-J1-PDC multicell spheroid viability
Experiment: Anticancer human tumor 931267-113-T-J1-PDC patient-derived colon adenocarcinoma cell line growth inhibition [PI3K]
Details: for IC50: curve of first compound; for viability, T/C: stronger effect = lower value
Outline: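 Complex 3D spheroids (cancer cells + endothelial HUVEC + mesenchymal stem cells); drug pairs of targeted agent x inavolisib/alpelisib/duvelisib/copanlisib; half-log series from ~Cmax, max 10 microM if Cmax unknown; endpoint viability.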

[1] = second compound 0.0316 µM, first compound 0.0316 µM
[2] = second compound 0.0316 µM, first compound 0.1 µM
[3] = second compound 0.0316 µM, first compound 0.316 µM
[4] = second compound 0.0316 µM, first compound 1 µM
[5] = second compound 0.0316 µM, first compound 3.16 µM
[6] = second compound 0.0316 µM, first compound 10 µM
[7] = second compound 0.1 µM, first compound 0.0316 µM
[8] = second compound 0.1 µM, first compound 0.1 µM
[9] = second compound 0.1 µM, first compound 0.316 µM
[10] = second compound 0.1 µM, first compound 1 µM
[11] = second compound 0.1 µM, first compound 3.16 µM
[12] = second compound 0.1 µM, first compound 10 µM
[13] = second compound 0.316 µM, first compound 0.0316 µM
[14] = second compound 0.316 µM, first compound 0.1 µM
[15] = second compound 0.316 µM, first compound 0.316 µM
[16] = second compound 0.316 µM, first compound 1 µM
[17] = second compound 0.316 µM, first compound 3.16 µM
[18] = second compound 0.316 µM, first compound 10 µM
[19] = second compound 1 µM, first compound 0.0316 µM
[20] = second compound 1 µM, first compound 0.1 µM
[21] = second compound 1 µM, first compound 0.316 µM
[22] = second compound 1 µM, first compound 1 µM
[23] = second compound 1 µM, first compound 3.16 µM
[24] = second compound 1 µM, first compound 10 µM
[25] = second compound 3.16 µM, first compound 0.0316 µM
[26] = second compound 3.16 µM, first compound 0.1 µM
[27] = second compound 3.16 µM, first compound 0.316 µM
[28] = second compound 3.16 µM, first compound 1 µM
[29] = second compound 3.16 µM, first compound 3.16 µM
[30] = second compound 3.16 µM, first compound 10 µM
[31] = second compound 10 µM, first compound 0.0316 µM
[32] = second compound 10 µM, first compound 0.1 µM
[33] = second compound 10 µM, first compound 0.316 µM
[34] = second compound 10 µM, first compound 1 µM
[35] = second compound 10 µM, first compound 3.16 µM
[36] = second compound 10 µM, first compound 10 µM
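Further: viability read 7 days after compound addition.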

`CC1(C)CCC(CN2CCN(c3ccc(C(=O)NS(=O)(=O)c4ccc(NCC5CCOCC5)c([N+](=O)[O-])c4)c(Oc4cnc5[nH]ccc5c4)c3)CC2)=C(c2ccc(Cl)cc2)C1` + CC(Nc1ncnc2nc[nH]c12)c1cc2cccc(Cl)c2c(=O)n1-c1ccccc1 was tested, and the IC50 (second compound 0.0316 µM) was 7.07 µM, the IC50 (second compound 0.1 µM) was 7.1 µM and the IC50 (second compound 0.316 µM) was 7.17 µM. For the same compound, the IC50 (second compound 1 µM) was 6.84 µM, the IC50 (second compound 3.16 µM) was 7.09 µM and the IC50 (second compound 10 µM) was 6.79 µM. For the same compound, the viability, T/C [1] was 105%, the viability, T/C [2] was 105% and the viability, T/C [3] was 102%. It also gave a viability, T/C [4] of 110%, a viability, T/C [5] of 99.3% and a viability, T/C [6] of 28.5%. The viability, T/C [7] was 113%, the viability, T/C [8] was 112% and the viability, T/C [9] was 105%. It also gave a viability, T/C [10] of 106%, a viability, T/C [11] of 107% and a viability, T/C [12] of 25.9%. It also gave a viability, T/C [13] of 103%, a viability, T/C [14] of 98.2% and a viability, T/C [15] of 106%. The viability, T/C [16] was 110%, the viability, T/C [17] was 101% and the viability, T/C [18] was 29.1%. For the same compound, the viability, T/C [19] was 105%, the viability, T/C [20] was 101% and the viability, T/C [21] was 95.3%. For the same compound, the viability, T/C [22] was 103%, the viability, T/C [23] was 92.4% and the viability, T/C [24] was 28.9%. It also gave a viability, T/C [25] of 101%, a viability, T/C [26] of 107% and a viability, T/C [27] of 97.4%. The viability, T/C [28] was 107%, the viability, T/C [29] was 99.3% and the viability, T/C [30] was 29%. For the same compound, the viability, T/C [31] was 92.9%, the viability, T/C [32] was 87.7% and the viability, T/C [33] was 98.4%. For the same compound, the viability, T/C [34] was 97.3%, the viability, T/C [35] was 92.6% and the viability, T/C [36] was 28.4%.
With `C[C@@H](NC(=O)c1ncnc(N)c1Cl)c1ncc(C(=O)Nc2cc(C(F)(F)F)c(Cl)cn2)s1` + CC(Nc1ncnc2nc[nH]c12)c1cc2cccc(Cl)c2c(=O)n1-c1ccccc1 the IC50 (second compound 0.0316 µM) was over 10 µM, the IC50 (second compound 0.1 µM) was over 10 µM and the IC50 (second compound 0.316 µM) was over 10 µM. It also gave an IC50 (second compound 1 µM) of over 10 µM, an IC50 (second compound 3.16 µM) of over 10 µM and an IC50 (second compound 10 µM) of over 10 µM. For the same compound, the viability, T/C [1] was 107%, the viability, T/C [2] was 117% and the viability, T/C [3] was 117%. It also gave a viability, T/C [4] of 104%, a viability, T/C [5] of 92.7% and a viability, T/C [6] of 74.5%. It also gave a viability, T/C [7] of 121%, a viability, T/C [8] of 107% and a viability, T/C [9] of 110%. It also gave a viability, T/C [10] of 111%, a viability, T/C [11] of 98.9% and a viability, T/C [12] of 78.1%. For the same compound, the viability, T/C [13] was 113%, the viability, T/C [14] was 116% and the viability, T/C [15] was 104%. It also gave a viability, T/C [16] of 110%, a viability, T/C [17] of 103% and a viability, T/C [18] of 75.1%. The viability, T/C [19] was 115%, the viability, T/C [20] was 114% and the viability, T/C [21] was 105%. It also gave a viability, T/C [22] of 110%, a viability, T/C [23] of 107% and a viability, T/C [24] of 69.4%. For the same compound, the viability, T/C [25] was 98.5%, the viability, T/C [26] was 108% and the viability, T/C [27] was 103%. It also gave a viability, T/C [28] of 95.8%, a viability, T/C [29] of 98.2% and a viability, T/C [30] of 66.5%. The viability, T/C [31] was 96.4%, the viability, T/C [32] was 107% and the viability, T/C [33] was 99.8%. It also gave a viability, T/C [34] of 106%, a viability, T/C [35] of 86% and a viability, T/C [36] of 53.2%.
In the case of `Cn1ncnc1[C@H]1c2n[nH]c(=O)c3cc(F)cc(c23)N[C@@H]1c1ccc(F)cc1` + CC(Nc1ncnc2nc[nH]c12)c1cc2cccc(Cl)c2c(=O)n1-c1ccccc1, the IC50 (second compound 0.0316 µM) is reported as over 0.1 µM, the IC50 (second compound 0.1 µM) is reported as over 0.1 µM and the IC50 (second compound 0.316 µM) is reported as over 0.1 µM. The IC50 (second compound 1 µM) was over 0.1 µM, the IC50 (second compound 3.16 µM) was over 0.1 µM and the IC50 (second compound 10 µM) was over 0.1 µM. It also gave a viability, T/C (second compound 0.0316 µM, first compound 0.000316 µM) of 105%, a viability, T/C (second compound 0.0316 µM, first compound 0.001 µM) of 102% and a viability, T/C (second compound 0.0316 µM, first compound 0.00316 µM) of 102%. The viability, T/C (second compound 0.0316 µM, first compound 0.01 µM) was 99.6%, the viability, T/C [1] was 114% and the viability, T/C [2] was 103%. It also gave a viability, T/C (second compound 0.1 µM, first compound 0.000316 µM) of 117%, a viability, T/C (second compound 0.1 µM, first compound 0.001 µM) of 112% and a viability, T/C (second compound 0.1 µM, first compound 0.00316 µM) of 96%. For the same compound, the viability, T/C (second compound 0.1 µM, first compound 0.01 µM) was 98.5%, the viability, T/C [7] was 111% and the viability, T/C [8] was 95.3%. For the same compound, the viability, T/C (second compound 0.316 µM, first compound 0.000316 µM) was 110%, the viability, T/C (second compound 0.316 µM, first compound 0.001 µM) was 113% and the viability, T/C (second compound 0.316 µM, first compound 0.00316 µM) was 110%. For the same compound, the viability, T/C (second compound 0.316 µM, first compound 0.01 µM) was 102%, the viability, T/C [13] was 108% and the viability, T/C [14] was 106%. It also gave a viability, T/C (second compound 1 µM, first compound 0.000316 µM) of 109%, a viability, T/C (second compound 1 µM, first compound 0.001 µM) of 108% and a viability, T/C (second compound 1 µM, first compound 0.00316 µM) of 101%. For the same compound, the viability, T/C (second compound 1 µM, first compound 0.01 µM) was 100%, the viability, T/C [19] was 100% and the viability, T/C [20] was 104%. The viability, T/C (second compound 3.16 µM, first compound 0.000316 µM) was 104%, the viability, T/C (second compound 3.16 µM, first compound 0.001 µM) was 101% and the viability, T/C (second compound 3.16 µM, first compound 0.00316 µM) was 99.4%. It also gave a viability, T/C (second compound 3.16 µM, first compound 0.01 µM) of 97.6%, a viability, T/C [25] of 112% and a viability, T/C [26] of 93.3%. The viability, T/C (second compound 10 µM, first compound 0.000316 µM) was 103%, the viability, T/C (second compound 10 µM, first compound 0.001 µM) was 94.6% and the viability, T/C (second compound 10 µM, first compound 0.00316 µM) was 87.4%. The viability, T/C (second compound 10 µM, first compound 0.01 µM) was 98.8%, the viability, T/C [31] was 100% and the viability, T/C [32] was 88.1%.
